# According to US6455530B1, “2R,4S,S,S- and 2S,4R,S,S-hydroxyitraconazole” (Sepracor Inc., priority 1996, dated 2002):
# What was measured:
# [1] = oral, daily administration; cited from earlier work
# Saccharomyces cerevisae = experiment: Kirby-Bauer testing (paper disk zones of inhibition); format: cell-based; settings: 10 μl of 10 mg/mL solution on 7 mm paper disk, Sabouraud Dextrose agar, 30° C. for 16 hours
# Procedure: (§1) Actively growing cultures of Candida albicans, Cryptococcus neoformens and Saccharomnyces cerevisiae were prepared as described above. The cultures were diluted to a 0.5 McFarland standard and swabbed onto a 150 mm Sabouraud Dextrose agar plates. Paper disks (7 mm) were placed onto the agar plates using a disk dispenser. Next 10 μl of 10 mg/mL solutions of each sample hydroxy-itraconazole was pipetted onto separate paper disks. The plates were then incubated at 30° C. for 16 hours. Zones of inhibition were then measured in mm. Data Represent Zones of Inhibition in mm.
# Cryptococcus neoformens = experiment: as above; format: cell-based; settings: 10 μl of 10 mg/mL solution on 7 mm paper disk, Sabouraud Dextrose agar, 30° C. for 16 hours
# Procedure: as §1
# Candida albicans = experiment: as above; format: cell-based; settings: 10 μl of 10 mg/mL solution on 7 mm paper disk, Sabouraud Dextrose agar, 30° C. for 16 hours
# Procedure: as §1
SMILES,Time at which peak plasma levels are attained [1] [days],zone of inhibition at 10000 µg/mL (Saccharomyces cerevisae; Saccharomyces) [mm],zone of inhibition at 10000 µg/mL (Cryptococcus neoformens; Cryptococcus) [mm],zone of inhibition at 10000 µg/mL (Candida albicans; Candida albicans) [mm],"Zones of Inhibition, Saccharomyces cerevisae (Saccharomyces cerevisae) [mm]","Zones of Inhibition, Cryptococcus neoformens (Cryptococcus neoformens) [mm]","Zones of Inhibition, Candida albicans (Candida albicans) [mm]"
"CCC(C)n1ncn(-c2ccc(N3CCN(c4ccc(OCC5COC(Cn6cncn6)(c6ccc(Cl)cc6Cl)O5)cc4)CC3)cc2)c1=O (racemic) [± Itraconazole, 4-[4-[4-[4-[[2-(2,4-dichlorophenyl)-2-(1H-1,2,4-triazol-1-ylmethyl)-1,3-dioxolan-4-yl]methoxy]phenyl]-1-piperazinyl]phenyl]-2,4dihydro-2-(1-methylpropyl)-3H-1,2,4triazol-3-one, reference compound]",15,15,22,17,,,
"C[C@H]([C@@H](C)O)n1ncn(-c2ccc(N3CCN(c4ccc(OC[C@H]5CO[C@](Cn6cncn6)(c6ccc(Cl)cc6Cl)O5)cc4)CC3)cc2)c1=O (single isomer, unassigned) [A diastereomer, (2R,4S)-4-[4-[4-[4-[[2-(2,4-Dichlorophenyl)-2-(1H-1,2,4-triazole-1-ylmethyl)-1,3-dioxolan-4-yl]methoxy]phenyl]-[-piperazinyl[phenyl]-2,4dihydro-2-[(1R*,2R*)-(2-hydroxy-1-methylpropyl)]-3H -1,2,4-triazol-3-one]",,,,,23,34,23
"C[C@H]([C@@H](C)O)n1ncn(-c2ccc(N3CCN(c4ccc(OC[C@@H]5CO[C@@](Cn6cncn6)(c6ccc(Cl)cc6Cl)O5)cc4)CC3)cc2)c1=O (single isomer, unassigned) [B diastereomer, (2S,4R)-4-[4-[4-[4-[[2-(2,4-Dichlorophenyl)-2-(1H-1,2,4,-triazole-1-ylmethyl)-1,3-dioxolan-4-yl}methoxy]phenyl]-1-piperazinyl]phenyl]-2,4-dihydro-2-[(1R*,2R*)-(2-hydroxy-1-methylpropyl)-3H-1,2,4-triazol-3-one]",,,,,25,32,27
